From patent US20140148477A1, “ANIMAL ECTOPARASITE-CONTROLLING AGENT AND METHOD FOR PREVENTING OR TREATING INFECTION IN ANIMALS CAUSED BY PARASITES BY USING THE CONTROLLING AGENT” (OTSUKA AGRITECHNO CO., LTD., priority 2011, published 2014)

Experiment: Dissolution in acetone when preparing the test solution
Format: physicochemical
Conditions: acetone added so that the concentration was 0.5 mg/ml
Description: Acetone was added to each of Test Compounds 1 to 17 so that the concentration was 0.5 mg/ml, thereby preparing solutions.

solubility in acetone: not dissolved in acetone
SMILES: COC(Cn1nc(-c2cc(F)cc(F)c2)cc1O[C@@H]1CCN(c2ccc(C(F)(F)F)cn2)C[C@@H]1C)OC [Test Compound 15]
